Here are results for 40 molecules from patent US8088806B2 (Achillion Pharmaceuticals, Inc., priority 2005, dated 2012).

One assay has as its system HCV replicon. Kind of assay: Replicon based assay of HCV replication inhibition (NPT ELISA). It is filed as cell-based, Hepatitis C virus. The settings on record: Hepatitis C virus, Huh-7, 72 h, Table I; Huh-7 HCV replicon-containing cells, three days; read-out: Activity. In outline:
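NPT (neomycin phosphotransferase) content, proportional to replicon replication, quantified by capture ELISA on day four. Before that, replicon-bearing Huh-7 cells in G418-free screening medium were exposed three days at 37° C to compound, typically six doses from 10 to 0.03 micromolar, with equal DMSO across wells.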
As for `Clc1ccc(-c2csc(Nc3cccc(Oc4ccccc4)c3)n2)cc1` [compound 34, 4-(4-chlorophenyl)-N-(3-phenoxyphenyl)thiazol-2-amine], the EC50 was under 1 µM.

`Clc1ccc(-c2csc(Nc3cccc(Oc4ccccc4)c3)n2)cc1Cl` [compound 32, 4-(3,4-dichlorophenyl)-N-(3-phenoxyphenyl)thiazol-2-amine]: the EC50 was under 1 µM.

In the case of `CCCCCc1ccc(Nc2nc(-c3ccc(CC(=O)O)cc3)c(C)s2)cc1` [compound 182, 2-(4-(2-(4-pentylphenylamino)-5-methylthiazol-4-yl)phenyl)acetic acid], the EC50 was under 1 µM.

`CCCCCOc1ccc(Nc2nc(-c3ccc(OC(F)F)cc3)cs2)cc1C(F)(F)F` [compound 4, 4-(4-(difluoromethoxy)phenyl)-N-(3-(trifluoromethyl)-4-(pentyloxy)phenyl)thiazol-2-amine]: the EC50 is under 1 µM.

On to `CCCCCOc1ccc(Nc2ncc(-c3ccccc3)s2)cc1C(F)(F)F` [compound 117, N-(3-(trifluoromethyl)-4-(pentyloxy)phenyl)-5-phenylthiazol-2-amine], for which the EC50 is under 1 µM.

The assay is the same for the next values; noted with them: Hepatitis C virus, Huh-7, 72 h, Table III; Huh-7 HCV replicon-containing cells, three days; read-out: Activity.
Take `CCCCCCCCOc1ccc(Nc2nc(-c3ccc(-n4ccnc4)cc3)cs2)cc1C(F)(F)F` [compound 661, 4-(4-(1H-imidazol-1-yl)phenyl)-N-(3-(trifluoromethyl)-4-(octyloxy)phenyl)thiazol-2-amine]: the EC50 was under 1 µM.

On to `CCCCCCCc1ccc(Nc2nc(-c3ccc4c(c3)NC(=O)CO4)cs2)cc1` [compound 560], for which the EC50 was under 1 µM.

For the molecule `CCCCCCCCOc1ccc(Nc2nc(-c3cccc4nsnc34)cs2)cc1C(F)(F)F` [compound 664, 4-(benzo[c][1,2,5]thiadiazol-4-yl)-N-(3-(trifluoromethyl)-4-(octyloxy)phenyl)thiazol-2-amine], the EC50 was under 1 µM.

For `CCCCCCCCN(C)c1ccc(Nc2nccs2)cc1C(F)(F)F` [compound 624, 2-(trifluoromethyl)-N^1-methyl-N^1-octyl-N^4-(thiazol-2-yl)benzene-1,4-diamine], the EC50 is under 1 µM.

`CCCCCOc1ccc(Nc2nc(Cc3ccc(F)cc3)cs2)cc1C(F)(F)F` [compound 627, 4-(4-fluorobenzyl)-N-(3-(trifluoromethyl)-4-(pentyloxy)phenyl)thiazol-2-amine]: the EC50 is under 1 µM.

For `CCCCCN(C)c1ccc(Nc2nc(Cc3ccc(F)c(F)c3)cs2)cc1C(F)(F)F` [compound 611, N^4-(4-(3,4-difluorobenzyl)thiazol-2-yl)-2-(trifluoromethyl)-N^1-methyl-N^1-pentylbenzene-1,4-diamine], the EC50 is over 10 µM.

For `CCCCCOc1ccc(Nc2nc3c(s2)CCc2ccncc2-3)cc1C(F)(F)F` [compound 592, N-(3-(trifluoromethyl)-4-(pentyloxy)phenyl)-4,5-dihydrothiazolo[5,4-h]isoquinolin-2-amine], the EC50 is under 1 µM.

`CCCCCCCCOc1cccc(Nc2nc(-c3cccnc3)cs2)c1` [compound 683, N-(3-(octyloxy)phenyl)-4-(pyridin-3-yl)thiazol-2-amine]: the EC50 is under 1 µM.

For `CCCCCCCCOc1ccc(Nc2nc(-c3cncnc3)cs2)cc1C(F)(F)F` [compound 617, N-(3-(trifluoromethyl)-4-(octyloxy)phenyl)-4-(pyrimidin-5-yl)thiazol-2-amine], the EC50 was under 1 µM.

Take `CCCCCCCCOc1ccc(Nc2nc(-c3ccc(Cl)s3)cs2)cc1C(F)(F)F` [compound 582, 4-(5-chlorothiophen-2-yl)-N-(3-(trifluoromethyl)-4-(octyloxy)phenyl)thiazol-2-amine]: the EC50 is under 1 µM.

For `CCCCCCCc1ccc(Nc2nc(-c3ccc(Cl)s3)cs2)cc1` [compound 558, 4-(5-chlorothiophen-2-yl)-N-(4-heptylphenyl)thiazol-2-amine], the EC50 was under 1 µM.

As to `CCCCCCCCc1ccc(Nc2nc(-c3cc4ccccc4o3)cs2)cc1` [compound 553, 4-(benzofuran-2-yl)-N-(4-octylphenyl)thiazol-2-amine], the EC50 lay in the range of 1 to 10 µM.

In the case of `CCCCCCCc1ccc(Nc2nc(Cc3cccc(F)c3)cs2)cc1` [compound 519, 4-(3-fluorobenzyl)-N-(4-heptylphenyl)thiazol-2-amine], the EC50 is 1 to 10 µM.

For `CCCCCCCCOc1ccc(Nc2nc(-c3ccc(O)c(C(N)=O)c3)cs2)cc1C(F)(F)F` [compound 581, 5-(2-(3-(trifluoromethyl)-4-(octyloxy)phenylamino)thiazol-4-yl)-2-hydroxybenzamide], the EC50 is under 1 µM.

For `CCCCCCCOc1ccc(Nc2nc(-c3ccc(NC)nc3)cs2)cc1` [compound 523, 5-(2-(4-(heptyloxy)phenylamino)thiazol-4-yl)-N-methylpyridin-2-amine], the EC50 was under 1 µM.

Staying with this assay, now noted: Hepatitis C virus, replicon based assay of HCV replication inhibition; Table II; read-out: Activity.
For the molecule `CCCCCCCCOc1ccc(Nc2nc(Cc3cccnc3)cs2)cc1` [compound 501, N-(4-(octyloxy)phenyl)-4-((pyridin-3-yl)methyl)thiazol-2-amine], the EC50 lay in the range of 1 to 10 µM.

`CCCCCOc1ccc(Nc2nc(CN3CCC(C(N)=O)CC3)cs2)cc1C(F)(F)F` [compound 267, 1-((2-(4-(pentyloxy)-3-(trifluoromethyl)phenyl-amino)thiazol-4-yl)methyl)piperidine-4-carboxamide]: the EC50 was under 1 µM.

For the molecule `CCCCCCCOc1ccc(Nc2nc(-c3cc4ccccc4o3)cs2)cc1` [compound 401, 4-(benzofuran-2-yl)-N-(4-(heptyloxy)phenyl)thiazol-2-amine], the EC50 is 1 to 10 µM.

Consider `Cc1ccc(-c2csc(Nc3ccc(OC4CCCC4)c(C(F)(F)F)c3)n2)cn1` [compound 453, N-(4-(cyclopentyloxy)-3-(trifluoromethyl)phenyl)-4-(6-methylpyridin-3-yl)thiazol-2-amine], for which the EC50 is under 1 µM.

Take `O=C(Nc1ccc(OCc2ccccc2)cc1)Nc1nc(-c2ccc(Cl)cc2)cs1` [compound 478, 1-(4-(benzyloxy)phenyl)-3-(4-(4-chlorophenyl)thiazol-2-yl)urea]: the EC50 is 1 to 10 µM.

For the molecule `CCCCCOc1c(F)cc(Nc2nc(-c3cccnc3)cs2)cc1F` [compound 430, N-(3,5-difluoro-4-(pentyloxy)phenyl)-4-(pyridin-3-yl)thiazol-2-amine], the EC50 is under 1 µM.

Regarding `CCCCCCCCOc1ccc(Nc2nc(-c3ccc(F)cc3)cs2)cc1` [compound 328, 4-(4-fluorophenyl)-N-(4-(octyloxy)phenyl)thiazol-2-amine], the EC50 was under 1 µM.

As for `CCCCCCCOc1ccc(Nc2nc(-c3ccc4[nH]c(=O)oc4c3)cs2)cc1` [compound 395, 6-(2-(4-(heptyloxy)phenylamino)thia-zol-4-yl)benzo[d]exazol-2(3H)-one], the EC50 is under 1 µM.

Consider `CCCCCOc1ccc(Nc2nc(-c3cnc4scc(C)n34)cs2)cc1C(F)(F)F` [compound 227, 4-(3-methylimidazo[1,2-b]thiazol-5-yl)-N-(4-(pentyloxy)-3-(trifluoromethyl)phenyl)thia-zol-2-amine], for which the EC50 was under 1 µM.

For `CCCCCCCCOc1ccc(Nc2nc(CN3CCN(C(=O)OC(C)(C)C)CC3)cs2)cc1` [compound 308, tert-butyl 4-((2-(4-(octyloxy)phenylamino)thia-zol-4-yl)methyl)piperazine-1-carboxylate], the EC50 was 1 to 10 µM.

Consider `Cc1sc(Nc2cccc(C(F)(F)F)c2)nc1-c1ccc(CC(=O)O)cc1` [compound 343, 2-(4-(5-methyl-2-(3-(trifluoromethyl)phenylamino)thiazol-4-yl)phenyl)acetic acid], for which the EC50 was over 10 µM.

For `CC/C=C\CCCCOc1ccc(Nc2nc(-c3ccc(F)cc3)cs2)cc1C(F)(F)F` [compound 482, N-(4-((Z)-oct-5-enyloxy)-3-(trifluoromethyl)phenyl)-4-(4-fluorophenyl)thiazol-2-amine], the EC50 is under 1 µM.

Staying with this assay, now noted: Hepatitis C virus, replicon based assay of HCV replication inhibition; Table IV; read-out: Activity.
As to `CCCCCCCCOc1ccc(Nc2nc(-c3cnc(O)nc3)cs2)cc1C(F)(F)F` [compound 840, 5-(2-(3-(trifluoromethyl)-4-(octyloxy)phenylamino)thiazol-4-yl)pyrimidin-2-ol], the EC50 was under 1 µM.

Consider `CCN(CC)C(=O)c1ccc(Nc2nc(-c3cccnc3)cs2)cc1` [compound 820, 4-(4-(pyridin-3-yl)thiazol-2-ylamino)-N,N-diethylbenzamide], for which the EC50 was over 10 µM.

Take `CCCCCCCCOc1ccc(Nc2nc(-c3cnc[nH]3)cs2)cc1C(F)(F)F` [compound 811, N-(3-(trifluoromethyl)-4-(octyloxy)phenyl)-4-(1H-imidazol-5-yl)thiazol-2-amine]: the EC50 is under 1 µM.

With `CCCCCCCCOc1ccc(Nc2nc(-c3cccnc3)c(N)s2)cc1C(F)(F)F` [compound 923, N^2-(3-(trifluoromethyl)-4-(octyloxy)phenyl)-4-(pyridin-3-yl)thiazole-2,5-diamine], the EC50 was under 1 µM.

As to `CCOC(=O)/C=C/c1ccc(Nc2nc(-c3cccnc3)cs2)cc1` [compound 907, (E)-ethyl 3-(4-(4-(pyridin-3-yl)thiazol-2-ylamino)phenyl)acrylate], the EC50 is over 10 µM.

`O=C(O)Cc1ccc(-c2csc(Nc3ccc(OCCCCc4ccccc4)c(C(F)(F)F)c3)n2)s1` [compound 927, 2-(5-(2-(4-(4-phenylbutoxy)-3-(trifluoromethyl)phenylamino)thiazol-4-yl)thiophen-2-yl)acetic acid]: the EC50 is under 1 µM.

For the molecule `CCCCCCCCOc1ccc(Nc2nc(-c3ncc(C(=O)OCC)s3)cs2)cc1C(F)(F)F` [compound 732, ethyl 2-(2-(3-(trifluoromethyl)-4-(octyloxy)phenylamino)thiazol-4-yl)thiazole-5-carboxylate], the EC50 was under 1 µM.

The same assay, now with this note: Table I; Huh-7 HCV replicon-containing cells, three days; read-out: Activity.
Turning to `CCCCCOc1ccc(Nc2nc(-c3ccc(Cl)cc3)cs2)cc1C(F)(F)F` [compound 3], the EC50 is under 1 µM.
